Where two headings read alike, the source gives them in different places.
Columns and labels:
[1] = tested on: cancer cell lines, DetermaIO classes; assay: Association of PRISM compound sensitivity with DetermaIO (DTIO) cell line classes; assay type: cell-based; details: association of compound sensitivity with DetermaIO classes; for DTIO Corr test: test data set; for DTIO Corr train: training data set
[2] = tested on: cancer cell lines classified IM, MSL, M; assay: PRISM screen compound sensitivity correlated with IM, MSL and M subtype of cell lines (101 gene signature); assay type: cell-based
[3] = subtype (IM, MSL or M) with which compound sensitivity is negatively correlated, training cell set (371 cell lines), 101 gene signature
[4] = subtype (IM, MSL or M) assigned to the compound by negative correlation of PRISM sensitivity with subtype, training cell set (371 cell lines), 101 gene signature
[5] = subtype (IM, MSL or M) with which PRISM compound sensitivity is negatively correlated, training cell set, 101 gene signature

Structure (SMILES) | DTIO Corr test [1] | DTIO Corr train [1] | further results
COc1ccc(C2=N[C@@H](c3ccc(Cl)cc3)[C@@H](c3ccc(Cl)cc3)N2C(=O)N2CCNC(=O)C2)c(OC(C)C)c1 [A12230535] | 0.1503 | 0.1606 | 
Cc1nccn1CC1CCc2c(c3ccccc3n2C)C1=O (stereo not drawn) [A19736161] | −0.1124 | −0.07634 | 
COC(=O)N[C@@H](C)CNc1nccc(-c2cn(C(C)C)nc2-c2cc(Cl)cc(NS(C)(=O)=O)c2F)n1 [A56085258] | 0.1442 | 0.09535 | 
Cc1ccc(NC(=O)c2ccc(CN3CC[C@H](N(C)C)C3)c(C(F)(F)F)c2)cc1Nc1nccc(-c2cncnc2)n1 [A75975749] | 0.1658 | 0.1191 | 
O=C(c1cc(Cc2n[nH]c(=O)c3ccccc23)ccc1F)N1CCN(C(=O)C2CC2)CC1 [K02113016] | 0.06404 | 0.02661 | 
Cc1cc(CN2CCN(c3c(Br)cnc4nc(-c5ccc(N6CCN(C)CC6)cc5)[nH]c34)CC2)no1 [K03289018] | −0.1396 | −0.02552 | 
Cc1ccc(NC(=O)c2cccc(C(C)(C)C#N)c2)cc1Nc1ccc2ncn(C)c(=O)c2c1 [K05804044] | 0.3247 | 0.1908 | 
CC(C)(C)c1nc(-c2cccc(NS(=O)(=O)c3c(F)cccc3F)c2F)c(-c2ccnc(N)n2)s1 [K09951645] | 0.1439 | 0.04313 | 
Cc1cc(C2CCCCC2)n(O)c(=O)c1 [K13044802] | −0.06749 | −0.1574 | 
O=Nc1ccc(O)c2ncccc12 [K13169950] | −0.00012 | 0.09356 | 
N=C(N)c1ccc(OCCCCCOc2ccc(C(=N)N)cc2)cc1 [K13183738] | 0.14 | 0.2157 | 
Cc1occc(=O)c1[O-].Cc1occc(=O)c1[O-].[O]=[V+2] [K16180792] | 0.09031 | 0.1485 | 
CS(=O)(=O)CCNCc1ccc(-c2ccc3ncnc(Nc4ccc(OCc5cccc(F)c5)c(Cl)c4)c3c2)o1 [K19687926] | −0.0302 | −0.08369 | 
COc1cc2nc(N3CCCN(C)CC3)nc(NC3CCN(Cc4ccccc4)CC3)c2cc1OC [K26818574] | 0.2463 | 0.08377 | 
CNC(=O)c1ccccc1Sc1ccc2c(/C=C/c3ccccn3)n[nH]c2c1 [K29905972] | 0.004812 | 0.0816 | 
N#Cc1c(Oc2ccc(F)c(NC(=O)Cc3cccc(C(F)(F)F)c3)c2)ccc2nc(NC(=O)C3CC3)sc12 [K31866293] | 0.2089 | 0.08489 | 
C=CC(=O)Nc1cc(Nc2nccc(-c3cn(C)c4ccccc34)n2)c(OC)cc1N(C)CCN(C)C [K42805893] | 0.0753 | −0.06781 | 
CCCCN1CCC(CNC(=O)c2c3n(c4ccccc24)CCCO3)CC1 [piboserod] |  |  | TNBCType train [2, 3]: MSL
CC[C@@H]1/C=C(\C)C[C@H](C)C[C@H](OC)[C@H]2O[C@@](O)(C(=O)C(=O)N3CCCC[C@H]3C(=O)O[C@H](/C(C)=C/[C@@H]3CC[C@H](Cl)[C@H](OC)C3)[C@H](C)[C@@H](O)CC1=O)[C@H](C)C[C@@H]2OC [pimecrolimus] |  |  | TNBCType train [2, 4]: MSL
O=C(O)C[C@H](O)C[C@H](O)/C=C/c1c(C2CC2)nc2ccccc2c1-c1ccc(F)cc1 [pitavastatin] |  |  | TNBCType train [2, 4]: MSL
Cc1cn2nc([C@@H]3CCCCN3C(=O)c3cc(Cl)ccc3NS(C)(=O)=O)cc2nc1N1CC[C@H](N)C1 [presatovir] |  |  | TNBCType train [2, 5]: MSL
C=Cc1cc(O)cc2nc(-c3ccc(O)c(F)c3)oc12 [prinaberel] |  |  | TNBCType train [2, 4]: MSL
Cc1ccc2c(-c3ccccc3)nc(=O)n(C(C)C)c2c1 [proquazone] |  |  | TNBCType train [2, 5]: MSL
O=C(N[C@H]1CN2CCC1CC2)c1cnc2ccsc2c1O [pumosetrag] |  |  | TNBCType train [2, 5]: MSL

Structure (SMILES) | DTIO Corr test [1] | DTIO Corr train [1] | further results
C[C@@H](c1nc(-c2ccc(C#N)cc2)cs1)[C@](O)(Cn1cncn1)c1ccc(F)cc1F [ravuconazole] |  |  | TNBCType train [2, 3]: MSL
C[C@]12CC[C@H](O)C[C@H]1CC[C@@H]1[C@@H]2CC[C@]2(C)[C@@H](c3ccc(=O)oc3)C[C@H]3O[C@]132 [resibufogenin] |  |  | TNBCType train [2, 5]: MSL; TNBCType test ([2]; subtype (IM, MSL, M) with which compound sensitivity correlates, test set): MSL; TNBCType train ([2]; subtype (IM, MSL, M) with which compound sensitivity correlates, training set): MSL
C[C@H]1CNCCCN1S(=O)(=O)c1cccc2cncc(F)c12 [ripasudil] |  |  | TNBCType train [2, 5]: MSL
CCn1nc(C)c2c1C(c1ccccc1)=NCC(=O)N2 [ripazepam] |  |  | TNBCType train [2, 4]: MSL
Cc1nc2n(c(=O)c1CCN1CCC(c3noc4cc(F)ccc34)CC1)CCCC2 [risperidone] |  |  | TNBCType train [2]: MSL
C=C[C@](C)(O)CC[C@@H]1[C@@]2(C)CCCC(C)(C)[C@@H]2CC[C@@]1(C)O [sclareol] |  |  | TNBCType train [2, 3]: MSL
CC(C)N(CCCCOCC(=O)NS(C)(=O)=O)c1cnc(-c2ccccc2)c(-c2ccccc2)n1 [selexipag] |  |  | TNBCType train [2, 5]: MSL
CC[C@H]1OC(=O)[C@@](C)(F)C(=O)[C@H](C)[C@@H](O[C@@H]2O[C@H](C)C[C@H](N(C)C)[C@H]2O)[C@](C)(OC)C[C@@H](C)C(=O)[C@H](C)[C@H]2N(CCCCn3cc(-c4cccc(N)c4)nn3)C(=O)O[C@]12C [solithromycin] |  |  | TNBCType train [2, 5]: MSL
O=C1C=CC[C@@H]2[C@H]3CCCN4CCC[C@@H](CN12)[C@@H]34 [sophocarpine] |  |  | TNBCType train [2, 4]: MSL
Nc1ccc(S(N)(=O)=O)cc1 [sulfanilamide] |  |  | TNBCType train [2, 3]: MSL
CC(=O)N1N=C(c2ccc(N)cc2)c2cc3c(cc2C[C@H]1C)OCO3 [talampanel] |  |  | TNBCType train [2, 4]: MSL
COc1ccc2[nH]c([S+]([O-])Cc3ncc(C)c(OC)c3C)nc2n1 (stereo not drawn) [tenatoprazole] |  |  | TNBCType train [2, 3]: MSL
CN(C)C(=S)SC(=S)N(C)C [tetramethylthiuram-monosulfide] |  |  | TNBCType train [2, 5]: MSL
O=C(Cn1c(=O)sc2ccc(Cl)cc21)N1CCN(CCO)CC1 [tiaramide] |  |  | TNBCType train [2, 5]: MSL
CCCSc1nc(N[C@@H]2C[C@H]2c2ccc(F)c(F)c2)c2nnn([C@@H]3C[C@H](OCCO)[C@@H](O)[C@H]3O)c2n1 [ticagrelor] |  |  | TNBCType train [2, 5]: MSL
N#Cc1cc(-c2n[nH]c(-c3ccncc3)n2)ccn1 [topiroxostat] |  |  | TNBCType train [2, 4]: MSL
C[C@]12CC[C@H]3[C@@H](CC[C@@]45O[C@@H]4C(O)=C(C#N)C[C@]35C)[C@@H]1CC[C@@H]2O [trilostane] |  |  | TNBCType train [2, 3]: MSL
COc1cc2c3cc1Oc1cc(ccc1O)C[C@@H]1c4c(cc(OC)c(O)c4Oc4ccc(cc4)C[C@@H]3N(C)CC2)CC[N+]1(C)C [tubocurarine] |  |  | TNBCType train ([2]; subtype (IM, MSL or M) the PRISM compound sensitivity is associated with, training cell set (371 cell lines), 101 gene signature): MSL
CC(C)(C)c1ccc(S(=O)(=O)Nc2ccc(Cl)cc2C(=O)c2cc[n+]([O-])cc2)cc1 [vercirnon] |  |  | TNBCType train [2, 5]: MSL
COc1ccc(N(C)c2nc(C)nc3ccccc23)cc1 [verubulin] |  |  | TNBCType train [2, 5]: MSL
CC[C@]1(O)C[C@@H]2CN(CCc3c([nH]c4ccccc34)[C@@](C(=O)OC)(c3cc4c(cc3OC)N(C)[C@H]3[C@@](O)(C(=O)OC)[C@H](OC(C)=O)[C@]5(CC)C=CCN6CC[C@]43[C@@H]65)C2)C1 [vinblastine] |  |  | TNBCType train [2, 3]: MSL
CC[C@]1(O)C[C@@H]2CN(CCc3c([nH]c4ccccc34)[C@@](C(=O)OC)(c3cc4c(cc3OC)N(C)[C@H]3[C@@](O)(C(N)=O)[C@H](O)[C@]5(CC)C=CCN6CC[C@]43[C@@H]65)C2)C1 [vindesine] |  |  | TNBCType train [2, 4]: MSL
CC(c1cc2ccccc2s1)N(O)C(N)=O (stereo not drawn) [zileuton] |  |  | TNBCType train [2, 3]: MSL
